# Laboratory results as given in patent US9422285B2, “Substituted pyrazolo[1,5-A]-pyridine-3-carboxamides and use thereof” (Bayer Pharma Aktiengesellschaft, priority 2014, dated 2016).
# Counter-ions that a name gives are not always drawn.
# Target: T1, recombinant guanylate cyclase reporter cell line (Rattus norvegicus, UniProt P19686+P20595)
# T1 construct: expressed in transfected cells
# T1 sequence (P19686 1-690): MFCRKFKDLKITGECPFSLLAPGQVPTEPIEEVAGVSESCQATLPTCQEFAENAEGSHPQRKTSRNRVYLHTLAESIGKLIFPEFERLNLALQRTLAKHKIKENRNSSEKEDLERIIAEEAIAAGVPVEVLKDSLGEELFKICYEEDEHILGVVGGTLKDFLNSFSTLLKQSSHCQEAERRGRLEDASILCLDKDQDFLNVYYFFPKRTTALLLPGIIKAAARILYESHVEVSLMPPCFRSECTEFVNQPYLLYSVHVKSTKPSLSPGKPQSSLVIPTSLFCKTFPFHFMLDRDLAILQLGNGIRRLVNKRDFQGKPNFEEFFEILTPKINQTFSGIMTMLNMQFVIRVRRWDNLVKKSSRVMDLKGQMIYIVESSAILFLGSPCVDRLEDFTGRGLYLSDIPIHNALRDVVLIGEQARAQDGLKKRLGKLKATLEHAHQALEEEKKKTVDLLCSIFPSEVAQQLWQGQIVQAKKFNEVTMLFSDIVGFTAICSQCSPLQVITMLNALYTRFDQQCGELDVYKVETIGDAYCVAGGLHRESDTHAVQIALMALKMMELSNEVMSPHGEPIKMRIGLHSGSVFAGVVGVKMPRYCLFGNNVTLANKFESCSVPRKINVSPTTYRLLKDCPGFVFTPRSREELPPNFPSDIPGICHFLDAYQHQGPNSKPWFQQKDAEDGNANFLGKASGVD
# T1 sequence (P20595 1-619): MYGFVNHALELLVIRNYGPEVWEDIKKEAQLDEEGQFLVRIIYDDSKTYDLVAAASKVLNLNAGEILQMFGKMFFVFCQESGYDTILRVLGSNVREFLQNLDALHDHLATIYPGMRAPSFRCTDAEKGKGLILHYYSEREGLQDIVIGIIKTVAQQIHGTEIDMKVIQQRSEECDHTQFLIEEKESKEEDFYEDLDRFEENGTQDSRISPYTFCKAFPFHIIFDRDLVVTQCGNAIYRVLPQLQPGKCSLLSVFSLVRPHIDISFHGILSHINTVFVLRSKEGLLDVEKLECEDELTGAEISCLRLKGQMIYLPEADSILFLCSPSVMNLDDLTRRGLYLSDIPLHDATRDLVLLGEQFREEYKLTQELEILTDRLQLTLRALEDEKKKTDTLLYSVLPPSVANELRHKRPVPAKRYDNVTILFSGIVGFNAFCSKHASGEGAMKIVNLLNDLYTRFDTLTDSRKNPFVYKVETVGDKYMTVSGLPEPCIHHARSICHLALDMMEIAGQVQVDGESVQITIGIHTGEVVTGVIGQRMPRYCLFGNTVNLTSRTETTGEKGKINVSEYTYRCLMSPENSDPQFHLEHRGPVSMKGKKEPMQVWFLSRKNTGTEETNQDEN
# Test: Effect on a recombinant guanylate cyclase reporter cell line (B-2)
# Type: cell-based
# Conditions: in some cases mean values for individual determinations
# Experimental: B-2. Effect on a Recombinant Guanylate Cyclase Reporter Cell Line
# The cellular effect of the inventive compounds is determined using a recombinant guanylate cyclase reporter cell line, as described in F. Wunder et al., Anal. Biochem. 339, 104-112 (2005).
# Representative MEC values (MEC=minimum effective concentration) for the inventive compounds are shown in the table below (in some cases as mean values for individual determinations): […]
row,SMILES,MEC (minimum effective concentration)
1,"Cc1cc(OCc2c(F)ccc(F)c2F)n2nc(C)c(C(=O)NC(CCC(F)(F)C(F)(F)F)C(C)(C)O)c2c1 (single isomer, unassigned; ent-2) [Example 22, ent-2,5-Dimethyl-N-(6,6,7,7,7-pentafluoro-2-hydroxy-2-methylheptan-3-yl)-7-[(2,3,6-trifluorobenzyl)oxy]pyrazolo[1,5-a]pyridine-3-carboxamide]",0.1 µM
2,"Cc1cc(OCc2c(F)ccc(F)c2F)n2nc(C)c(C(=O)NCCC3(O)CCCC3)c2c1 [Example 5, N-[2-(1-Hydroxycyclopentyl)ethyl]-2,5-dimethyl-7-[(2,3,6-trifluorobenzyl)oxy]pyrazolo[1,5-a]pyridine-3-carboxamide]",0.3 µM
3,"Cc1cc(OCc2c(F)ccc(F)c2F)n2nc(C)c(C(=O)N[C@@H](CO)C(=O)Nc3ccc4ccccc4c3)c2c1 [Example 7, N-[(2S)-3-Hydroxy-1-(2-naphthylamino)-1-oxopropan-2-yl]-2,5-dimethyl-7-[(2,3,6-trifluorobenzyl)oxy]pyrazolo[1,5-a]pyridine-3-carboxamide]",1.0 µM
4,"CCC(N)(CC)CNC(=O)c1c(C)nn2c(OCc3c(F)ccc(F)c3F)cc(C)cc12 [Example 8, N-(2-Amino-2-ethylbutyl)-2,5-dimethyl-7-[(2,3,6-trifluorobenzyl)oxy]pyrazolo[1,5-a]pyridine-3-carboxamide]",0.3 µM
5,"Cc1cc(OCc2c(F)ccc(F)c2F)n2nc(C)c(C(=O)NC3CC(C)(C)NC(C)(C)C3)c2c1 [Example 9, 2,5-Dimethyl-N-(2,2,6,6-tetramethylpiperidin-4-yl)-7-[(2,3,6-trifluorobenzyl)oxy]pyrazolo[1,5-a]pyridine-3-carboxamide]",1.0 µM
6,"Cc1cc(OCc2c(F)ccc(F)c2F)n2nc(C)c(C(=O)Nc3c(C)nn(CCO)c3C)c2c1 [Example 11, N-[1-(2-Hydroxyethyl)-3,5-dimethyl-1H-pyrazol-4-yl]-2,5-dimethyl-7-[(2,3,6-trifluorobenzyl)oxy]pyrazolo[1,5-a]pyridine-3-carboxamide]",1.0 µM
7,"Cc1cc(OCc2c(F)ccc(F)c2F)n2nc(C)c(C(=O)NCCN(C)C)c2c1 [Example 12, N-[2-(Dimethylamino)ethyl]-2,5-dimethyl-7-[(2,3,6-trifluorobenzyl)oxy]pyrazolo[1,5-a]pyridine-3-carboxamide]",3.0 µM
8,"Cc1cc(OCc2c(F)ccc(F)c2F)n2nc(C)c(C(=O)NCc3ccccc3-c3cccnc3)c2c1 [Example 14, 2,5-Dimethyl-N-[2-(pyridin-3-yl)benzyl]-7-[(2,3,6-trifluorobenzyl)oxy]pyrazolo[1,5-a]pyridine-3-carboxamide]",0.3 µM
9,"Cc1cc(OCc2c(F)ccc(F)c2F)n2nc(C)c(C(=O)NCCN3CCOCC3)c2c1 [Example 15, 2,5-Dimethyl-N-[2-(morpholin-4-yl)ethyl]-7-[(2,3,6-trifluorobenzyl)oxy]pyrazolo[1,5-a]pyridine-3-carboxamide]",3.0 µM
10,"Cc1cc(OCc2c(F)ccc(F)c2F)n2nc(C)c(C(=O)Nc3c(C)nn(Cc4ccc(F)cc4)c3C)c2c1 [Example 16, N-[1-(4-Fluorobenzyl)-3,5-dimethyl-1H-pyrazol-4-yl]-2,5-dimethyl-7-[(2,3,6-trifluorobenzyl)oxy]pyrazolo[1,5-a]pyridine-3-carboxamide]",0.3 µM
11,"Cc1cc(OCc2c(F)ccc(F)c2F)n2nc(C)c(C(=O)NCc3ncc[nH]3)c2c1 [Example 18, N-(1H-Imidazol-2-ylmethyl)-2,5-dimethyl-7-[(2,3,6-trifluorobenzyl)oxy]pyrazolo[1,5-a]pyridine-3-carboxamide]",3.0 µM
12,"Cc1cc(OCc2c(F)ccc(F)c2F)n2nc(C)c(C(=O)NCC3(O)CC3)c2c1 [Example 25, N-[(1-Hydroxycyclopropyl)methyl]-2,5-dimethyl-7-[(2,3,6-trifluorobenzyl)oxy]pyrazolo[1,5-a]pyridine-3-carboxamide]",0.3 µM

# The next lines start with the values.
row,MEC (minimum effective concentration),SMILES
1,0.3 µM,"Cc1cc(OCc2c(F)cccc2F)n2nc(C3CC3)c(C(=O)NCC(C)(N)CC(F)F)c2c1 (single isomer, unassigned) [Example 56, ent-N-(2-Amino-4,4-difluoro-2-methylbutyl)-2-cyclopropyl-7-[(2,6-difluorobenzyl)oxy]-5-methylpyrazolo[1,5-a]pyridine-3-carboxamide]"
2,0.3 µM,"Cc1cc(OCc2c(F)cccc2F)n2nc(C3CC3)c(C(=O)NCC(C)(N)CC(F)F)c2c1 (single isomer, unassigned) [Example 57, ent-N-(2-Amino-4,4-difluoro-2-methylbutyl)-2-cyclopropyl-7-[(2,6-difluorobenzyl)oxy]-5-methylpyrazolo[1,5-a]pyridine-3-carboxamide]"
3,0.03 µM,"Cc1cc(OCc2c(F)cccc2F)n2nc(C3CC3)c(C(=O)NCC(C)(N)CCC(F)(F)F)c2c1 (single isomer, unassigned) [Example 58, ent-N-(2-Amino-5,5,5-trifluoro-2-methylpentyl)-2-cyclopropyl-7-[(2,6-difluorobenzyl)oxy]-5-methylpyrazolo[1,5-a]pyridine-3-carboxamide]"
4,3.0 µM,"Cc1cc(OCc2c(F)cccc2F)n2nc(C)c(C(=O)NC3CC(C)Nc4ccc(C(F)(F)F)nc43)c2c1 (single isomer, unassigned; ent-7) [Example 86, ent-7-[(2,6-Difluorobenzyl)oxy]-2,5-dimethyl-N-[2-methyl-6-(trifluoromethyl)-1,2,3,4-tetrahydro-1,5-naphthyridin-4-yl]pyrazolo[1,5-a]pyridine-3-carboxamide]"
5,2 µM,"Cc1cc(OCc2c(F)cccc2F)n2nc(C)c(C(=O)NCC(C)(C)N)c2c1 [Example 1, N-(2-Amino-2-methylpropyl)-7-[(2,6-difluorobenzyl)oxy]-2,5-dimethylpyrazolo[1,5-a]pyridine-3-carboxamide formate]"
6,1.0 µM,Cc1cc(OCc2c(F)ccc(F)c2F)n2nc(C)c(C(=O)NC3c4ccccc4CC3O)c2c1 (centres unmarked) [Example 6]
7,0.3 µM,"Cc1cc(OCc2c(F)ccc(F)c2F)n2nc(C)c(C(=O)Nc3cnn(CC(F)(F)F)c3)c2c1 [Example 17, 2,5-Dimethyl-7-[(2,3,6-trifluorobenzyl)oxy]-N-[1-(2,2,2-trifluoroethyl)-1H-pyrazol-4-yl]pyrazolo[1,5-a]pyridine-3-carboxamide]"
8,0.3 µM,"Cc1cc(OCc2c(F)ccc(F)c2F)n2nc(C)c(C(=O)Nc3c(C(F)(F)F)n[nH]c3C)c2c1 [Example 20, 2,5-Dimethyl-N-[5-methyl-3-(trifluoromethyl)-1H-pyrazol-4-yl]-7-[(2,3,6-trifluorobenzyl)oxy]pyrazolo[1,5-a]pyridine-3-carboxamide]"
9,0.3 µM,"Cc1cc(OCc2c(F)ccc(F)c2F)n2nc(C)c(C(=O)NCc3ccc(Cl)nc3)c2c1 [Example 21, N-[(6-Chloropyridin-3-yl)methyl]-2,5-dimethyl-7-[(2,3,6-trifluorobenzyl)oxy]pyrazolo[1,5-a]pyridine-3-carboxamide]"
10,0.3 µM,"Cc1cc(OCc2c(F)ccc(F)c2F)n2nc(C)c(C(=O)Nc3cnn4ccccc34)c2c1 [Example 23, 2,5-Dimethyl-N-(pyrazolo[1,5-a]pyridin-3-yl)-7-[(2,3,6-trifluorobenzyl)oxy]pyrazolo[1,5-a]pyridine-3-carboxamide]"
11,0.3 µM,"Cc1cc(OCc2c(F)ccc(F)c2F)n2nc(C)c(C(=O)NCCN(CC(F)F)C3CC3)c2c1 [Example 26, N-{2-[Cyclopropyl(2,2-difluoroethyl)amino]ethyl]-2,5-dimethyl-7-[(2,3,6-trifluorobenzyl)oxy]pyrazolo[1,5-a]pyridine-3-carboxamide]"
